Experimental data as given in publication PMC9430695.

What follows are molecules tested against T1, Sortase A (SrtA) (Staphylococcus aureus, UniProt Q2FV99) (assay: biochemical). Conditions: library screen; read-out: Relative inhibition rate (%).
T1 construct: SrtA residues Gln-60-Lys-206 (SrtA ΔN59), from S. aureus USA300, 6 × His tag
T1 sequence (Q2FV99 60-206): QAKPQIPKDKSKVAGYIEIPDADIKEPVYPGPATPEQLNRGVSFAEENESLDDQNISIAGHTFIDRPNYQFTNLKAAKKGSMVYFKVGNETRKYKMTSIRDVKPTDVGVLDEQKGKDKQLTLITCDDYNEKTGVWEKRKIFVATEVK
Design: FRET cleavage of Abz-LPATG-Dap(Dnp)-NH2 by purified SrtA, fluorescence 309/420 nm
Method: Fluorescence resonant energy transfer (FRET) was used to screen the effect of the SrtA inhibitor ([22]). Purified SrtA (4 μM) and hibifolin with different concentrations were added into a 100 μL reaction system, incubating at 37°C for 1 h. A fluorescent substrate peptide Abz-LPATG-Dap (Dnp)-NH2 (10 μM) (Beijing, China) was added to initiate the reaction. After incubating at 37°C for 20 min, the fluorescent microplate reader was measured with the excitation wavelength at 309 nm and the emission wavelength at 420 nm. Subsequently, a gradient concentration inhibition curve was performed and IC50 was calculated. When the inhibitory activity was greater than 60%, the compound was considered a potential inhibitor. The representative list of our nature compounds library has been compiled in Table S3 in Supplemental File 1 along with the results of the initial screening.
In the case of `O=C(O[C@H]1[C@H](Oc2c(-c3ccc(O)c(O)c3)oc3cc(O)cc(O)c3c2=O)O[C@H](CO)[C@H](O)[C@@H]1O)c1cc(O)c(O)c(O)c1` [2"-O-Galloylhyperin], the inhibition at 64 µg/mL is reported as 42.4%.
`COc1ccc(-c2cc(=O)c3c(OC)cc(OC)c(OC)c3o2)cc1` [5,7,8,4'-Tetramethoxyflavone] showed an inhibition at 64 µg/mL of 27.4%.
For `COc1ccc(-c2cc(=O)c3c(O)c(OC)c(OC)c(OC)c3o2)cc1OC` [5-Demethylnobiletin], the inhibition at 64 µg/mL was 54.3%.
With `COc1ccc(-c2coc3cc(OC)ccc3c2=O)cc1` [7,4'-Dimethoxyisoflavone] the inhibition at 64 µg/mL was 44%.
`C/C=C/c1cc(OC)c2c(c1)[C@@H](C)[C@H](c1ccc3c(c1)OCO3)O2` [(-)-Licarin B] was tested, and the inhibition at 64 µg/mL was 38.9%.
Molecule `COc1cc(C[C@H](C)[C@H](C)Cc2ccc3c(c2)OCO3)ccc1O` [Anwulignan] has an inhibition at 64 µg/mL of 15.6%.
Molecule `COc1ccc(-c2oc3cc(OC)c(OC)c(O)c3c(=O)c2OC)cc1OC` [Artemetin] has an inhibition at 64 µg/mL of 32.8%.
`O=c1c(O[C@@H]2O[C@@H](CO)[C@H](O)[C@H]2O)c(-c2ccc(O)c(O)c2)oc2cc(O)cc(O)c12` [Avicularin] showed an inhibition at 64 µg/mL of 45.3%.
In the case of `COc1ccc(-c2cc(=O)c3c(O)cc(O)cc3o2)cc1-c1c(O)cc(O)c2c(=O)cc(-c3ccc(O)cc3)oc12` [Bilobetin], the inhibition at 64 µg/mL is reported as 17.8%.
Molecule `COc1cc(-c2oc3cc(OC)c(OC)c(O)c3c(=O)c2OC)ccc1O` [Chrysosplenetin] has an inhibition at 64 µg/mL of 34.2%.
`CC(C)=CCC/C(C)=C/Cc1cc(-c2coc3cc(O)ccc3c2=O)ccc1O` [Corylifol A] gave an inhibition at 64 µg/mL of 36.8%.
`O=c1cc(-c2ccc(O)cc2)oc2cc(O[C@@H]3O[C@H](CO)[C@@H](O)[C@H](O)[C@H]3O)cc(O)c12` [Cosmosiin] was tested, and the inhibition at 64 µg/mL was 46.8%.
Molecule `COc1ccc([C@@H]2OC[C@H]3[C@@H]2CO[C@@H]3c2ccc(O[C@@H]3O[C@H](CO)[C@@H](O)[C@H](O)[C@H]3O)c(OC)c2)cc1OC` [Forsythin] has an inhibition at 64 µg/mL of 14.8%.
In the case of `COc1cc(O)c2c(=O)cc(-c3ccc(OC)c(-c4c(O)cc(O)c5c(=O)cc(-c6ccc(O)cc6)oc45)c3)oc2c1` [Ginkgetin], the inhibition at 64 µg/mL is reported as 0.25%.
Molecule `COc1c(O)cc2oc(-c3ccc(O)cc3)cc(=O)c2c1O` [Hispidulin] has an inhibition at 64 µg/mL of 50%.
`COc1cc(-c2coc3cc(O)c(OC)c(O)c3c2=O)cc(O)c1OC` [Irigenin] gave an inhibition at 64 µg/mL of 30.3%.
`COc1cc2c(c(OC)c1OC)-c1c(cc3c(c1OC)OCO3)[C@H](OC(C)=O)[C@H](C)[C@H](C)C2` [Kadsurin] was tested, and the inhibition at 64 µg/mL was 16.9%.
`COc1ccc(-c2oc3cc(OC)cc(O)c3c(=O)c2OC)cc1` [Kaempferol 3,7,4'-trimethyl ether] gave an inhibition at 64 µg/mL of 32.6%.
Work on `O=c1c(O[C@@H]2O[C@H](CO)[C@@H](O)[C@H](O)[C@H]2O[C@@H]2OC[C@@H](O)[C@H](O)[C@H]2O)c(-c2ccc(O)cc2)oc2cc(O)cc(O)c12` [Leucoside] yielded an inhibition at 64 µg/mL of 27.3%.
Molecule `O=C(/C=C/c1ccc(O)c2c1[C@H](C(=O)O)[C@@H](c1ccc(O)c(O)c1)O2)O[C@H](Cc1ccc(O)c(O)c1)C(=O)O` [Lithospermic acid] has an inhibition at 64 µg/mL of 51.7%.
For `C=CCc1cc(OC)c(O[C@@H](C)[C@H](O)c2ccc(O)c(OC)c2)c(OC)c1` [Myrislignan], the inhibition at 64 µg/mL was 1.72%.
`COc1cc(-c2oc3cc(O)cc(O)c3c(=O)c2O[C@@H]2O[C@H](CO[C@@H]3O[C@@H](C)[C@H](O)[C@@H](O)[C@H]3O)[C@@H](O)[C@H](O)[C@H]2O)ccc1O` [Narcissin] gave an inhibition at 64 µg/mL of 44.5%.
`Oc1cc(O)c2c(c1)O[C@H](c1ccc(O)c(O)c1)[C@H](O)[C@H]2c1c(O)cc(O)c2c1O[C@H](c1ccc(O)c(O)c1)[C@H](O)C2` [Procyanidin B2] showed an inhibition at 64 µg/mL of 13.8%.
Work on `O=c1c(O[C@@H]2O[C@H](CO)[C@@H](O)[C@H](O)[C@H]2O[C@@H]2O[C@H](CO)[C@@H](O)[C@H](O)[C@H]2O)c(-c2ccc(O)c(O)c2)oc2cc(O)cc(O)c12` [Quercetin 3-O-sophoroside] yielded an inhibition at 64 µg/mL of 37.8%.
`O=c1cc(-c2ccc(O)cc2)oc2cc(O)c(O)c(O)c12` [Scutellarein] was tested, and the inhibition at 64 µg/mL was 42.1%.
In the case of `COc1ccc(-c2cc(=O)c3c(OC)c(OC)c(OC)cc3o2)cc1OC` [Sinensetin], the inhibition at 64 µg/mL is reported as 23.8%.
`O=c1c(-c2ccc(O[C@@H]3O[C@H](CO)[C@@H](O)[C@H](O)[C@H]3O)cc2)coc2cc(O)cc(O)c12` [Sophoricoside] showed an inhibition at 64 µg/mL of 14.4%.
With `COc1c(O[C@@H]2O[C@H](CO)[C@@H](O)[C@H](O)[C@H]2O)cc2occ(-c3ccc(O)cc3)c(=O)c2c1O` [Tectoridin] the inhibition at 64 µg/mL was 20%.
For `O=C(O)[C@H]1O[C@@H](Oc2c(O)cc(O)c3c(=O)c(O)c(-c4ccc(O)c(O)c4)oc23)[C@H](O)[C@@H](O)[C@@H]1O` [hibifolin], the inhibition at 64 µg/mL was 65.3%.

Same assay, conditions: read-out: SrtA relative inhibition rate (%)
For `O=c1cc(-c2ccc(Oc3c(O)cc4oc(-c5ccc(O)cc5)cc(=O)c4c3O)cc2)oc2cc(O)cc(O)c12` [Hinokiflavone], the inhibition at 64 µg/mL was 36.2%.
For `COC(=O)[C@H]1O[C@@H](Oc2cc3oc(-c4ccc(O)cc4)cc(=O)c3c(O)c2O)[C@H](O)[C@@H](O)[C@@H]1O` [Scutellarin Methyl Ester], the inhibition at 64 µg/mL was 73.8%.
`COc1ccc(-c2oc3cc(O)cc(O)c3c(=O)c2O)cc1O` [Tamarixetin] showed an inhibition at 64 µg/mL of 26.2%.
Work on `O=C1c2c(O)cc(O)cc2O[C@H](c2ccc(O)c(O)c2)[C@H]1O` [Taxifolin] yielded an inhibition at 64 µg/mL of 56%.
For `O=c1cc(-c2ccc(O)cc2)oc2c([C@@H]3O[C@H](CO)[C@@H](O)[C@H](O)[C@H]3O)c(O)c([C@@H]3O[C@H](CO)[C@@H](O)[C@H](O)[C@H]3O)c(O)c12` [Vicenin-2], the inhibition at 64 µg/mL was 67.6%.
For `C[C@@H]1O[C@@H](Oc2cc(O)c3c(=O)c(O)c(-c4ccc(O)c(O)c4)oc3c2)[C@H](O)[C@H](O)[C@H]1O` [Vincetoxicoside B], the inhibition at 64 µg/mL was 57.2%.
`O=C(O)[C@H]1O[C@@H](Oc2c(O)cc(O)c3c(=O)c(O)c(-c4ccc(O)c(O)c4)oc23)[C@H](O)[C@@H](O)[C@@H]1O` [hibifolin] gave an inhibition at 64 µg/mL of 74.6%.

Each molecule was assayed against T1, Sortase A (SrtA) (assay: fluorescence quenching (KA); also FRET inhibition of purified SrtA, IC50 […]). Conditions: read-out: fluorescence quenching (KA), IC50 31.20 μ (converted).
Type: binding
In the case of `O=C(O)[C@H]1O[C@@H](Oc2c(O)cc(O)c3c(=O)c(O)c(-c4ccc(O)c(O)c4)oc23)[C@H](O)[C@@H](O)[C@@H]1O` [hibifolin], the Kd is reported as 58.1 µM.
